In US7727988B2, “Azabicyclo[3.1.0]hex-3-yl}alkyl)pyrimidinedione” (Glaxo Group Limited, priority 2006, dated 2010):

Target: T1, dopamine D2 receptor (Homo sapiens, UniProt P14416)
T1 construct: expressed in transfected cells; host or cells: Chinese Hamster Ovary (CHO) cells, membranes
Assay: GTPS scintillation proximity assay (GTPS-SPA), CHO_D2 membranes
Format: biochemical
Conditions: up to the highest concentration tested in the assay (3 μM)
Method: Functional potency of compounds of this invention can be measured by the following GTPS scintillation proximity assay (GTPS-SPA). Cells used in the study are Chinese Hamster Ovary (CHO) Cells. • Cell Line • CHO_D2 • CHO_D3 • Dopamine CHO D3 (Biocat no 1060) transduced with bacmam G0 G-protein (Biocat no 97886)
All steps are performed at 4° C. Cell membranes are prepared as follows. Cell pellets are resuspended in 10 volumes of 50 mM HEPES, 1 mM EDTA pH 7.4, using KOH. Cells are homogenised within a glass waring blender for 2 bursts of 15 secs in 200 mls of buffer (50 mM HEPES, 1 mM leupeptin, 25 μg/ml bacitracin, 1 mM EDTA, 1 mM PMSF, 2 μM Pepstatin A). (the latter 2 reagents added as fresh ×100 and ×500 stocks respectively in ethanol). The blender is plunged into ice for 5 mins after the first burst and 10-40 mins after the final burst to allow foam to dissipate. The material is then spun at 500 g for 20 mins and the supernatant spun for 36 mins at 48.000 g. The pellet is resuspended in the same buffer as above but without PMSF and Pepstatin A. The material is then forced through a 0.6 mm needle, made up to the required volume, (usually ×4 the volume of the original cell pellet), aliquoted and stored frozen at −80° C.
The final top concentration of test drug is 3 μM in the assay and 11 points serial dilution curves 1:4 in 100% DMSO are carried out using a Biomek FX. The test drug at 1% (0.5 ul) total assay volume (TAV) is added to a solid, white Greiner polypropylene 384-well assay plate. 50% TAV (25 μl) of precoupled (for 60 mins at RT) membranes, 5 μg/well, and Wheatgerm Agglutinin Polystyrene Scintillation Proximity Assay beads (RPNQ0260, Amersham), 0.25 mg/well, in 20 mM HEPES (pH 7.4, 100 mM NaCl, 10 mM MgCl2), 60 μg/mL saponin and 30 uM GDP is added. The third addition is a 20% TAV (10 ul) addition of either buffer, (agonist format) or EC80 final assay concentration of agonist, Quinelorane, prepared in assay buffer (antagonist format). The assay is started by the addition of 29% TAV (15 ul) of GTP[35S] 0.38 nM final (37 MBq/mL, 1160 Ci/mmol, Amersham). After all additions assay plates are spun down for 1 min at 1,000 rpm. The final assay cocktail ([…]) is incubated at room temperature to equilibrate for 3-6 hours before reading on a ViewLux™ (613/55 filter) luminescence imager 5 min/plate.
The effect of the test drug over the basal generates fpKi values of test drug are calculated from the IC50 generated by “antagonist format” experiment, using Cheng & Prusoff equation: fKi=IC50/1+([A]/EC50) where: [A] is the concentration of the agonist Quinelorane in the assay and EC50 is the Quinelorane EC50 value obtained in the same experiment. fpKi is defined as −logfKi. • pKi results are only estimated to be accurate to about 0.3-0.5.

T1 sequence (P14416 whole entry): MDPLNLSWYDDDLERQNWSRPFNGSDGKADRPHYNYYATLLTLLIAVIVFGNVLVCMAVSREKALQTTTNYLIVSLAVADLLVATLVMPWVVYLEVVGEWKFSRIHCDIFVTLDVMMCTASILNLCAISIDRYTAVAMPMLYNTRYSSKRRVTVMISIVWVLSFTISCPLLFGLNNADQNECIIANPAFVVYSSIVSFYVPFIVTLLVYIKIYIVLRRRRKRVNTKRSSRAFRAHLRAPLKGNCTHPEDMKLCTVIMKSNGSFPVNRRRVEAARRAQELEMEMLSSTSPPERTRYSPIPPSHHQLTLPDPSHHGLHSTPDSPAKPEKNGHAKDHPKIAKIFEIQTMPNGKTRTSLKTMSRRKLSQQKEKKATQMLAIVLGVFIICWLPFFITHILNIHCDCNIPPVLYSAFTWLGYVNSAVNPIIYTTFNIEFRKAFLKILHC

| activity in the D2 GTPS-SPA assay | Structure (SMILES) |
| --- | --- |
| no activity | Cc1ccc(-c2cn(CCCN3C[C@@H]4C[C@]4(c4ccc(C(F)(F)F)cc4)C3)c(=O)[nH]c2=O)c(Cl)n1.Cl.Cl [Example E63, 5-(2-chloro-6-methyl-3-pyridinyl)-1-(3-{(1S,5R)-1-[4-(trifluoromethyl)phenyl]-3-azabicyclo[3.1.0]hex-3-yl}propyl)-2,4(1H,3H)-pyrimidinedione dihydrochloride] |
| no activity | Cc1ncccc1-c1cn(CCCN2C[C@@H]3C[C@]3(c3ccc(C(F)(F)F)cc3)C2)c(=O)[nH]c1=O.Cl.Cl [Example E19, 5-(2-methyl-3-pyridinyl)-1-(3-{(1S,5R)-1-[4-(trifluoromethyl)phenyl]-3-azabicyclo[3.1.0]hex-3-yl}propyl)-2,4(1H,3H)-pyrimidinedione dihydrochloride] |
| no activity | Cc1ccc(-c2cn(CCCN3C[C@@H]4C[C@]4(c4ccc(C(F)(F)F)cc4)C3)c(=O)[nH]c2=O)cn1.Cl.Cl [Example E40, 5-(6-methyl-3-pyridinyl)-1-(3-{(1S,5R)-1-[4-(trifluoromethyl)phenyl]-3-azabicyclo[3.1.0]hex-3-yl}propyl)-2,4(1H,3H)-pyrimidinedione dihydrochloride] |
| no activity | Cc1nc(F)ccc1-c1cn(CCCN2C[C@@H]3C[C@]3(c3ccc(C(F)(F)F)cc3)C2)c(=O)[nH]c1=O.Cl.Cl [Example E36, 5-(6-fluoro-2-methyl-3-pyridinyl)-1-(3-{(1S,5R)-1-[4-(trifluoromethyl)phenyl]-3-azabicyclo[3.1.0]hex-3-yl}propyl)-2,4(1H,3H)-pyrimidinedione dihydrochloride] |
| no activity | Cl.Cl.O=c1[nH]c(=O)n(CCCN2C[C@@H]3C[C@]3(c3ccc(C(F)(F)F)cc3)C2)cc1-c1cccnc1F [Example E25, 5-(2-fluoro-3-pyridinyl)-1-(3-{(1S,5R)-1-[4-(trifluoromethyl)phenyl]-3-azabicyclo[3.1.0]hex-3-yl}propyl)-2,4(1H,3H)-pyrimidinedione dihydrochloride] |
| no activity | Cc1nc(-c2cn(CCCN3C[C@@H]4C[C@]4(c4ccc(C(F)(F)F)cc4)C3)c(=O)[nH]c2=O)ccc1F.Cl.Cl [Example E39, 5-(5-fluoro-6-methyl-2-pyridinyl)-1-(3-{(1S,5R)-1-[4-(trifluoromethyl)phenyl]-3-azabicyclo[3.1.0]hex-3-yl}propyl)-2,4(1H,3H)-pyrimidinedione dihydrochloride] |
| no activity | Cc1ccccc1-c1cn(CCCN2C[C@@H]3C[C@]3(c3ccc(C(F)(F)F)cc3)C2)c(=O)[nH]c1=O.Cl [Example E31, 5-(2-methylphenyl)-1-(3-{(1S,5R)-1-[4-(trifluoromethyl)phenyl]-3-azabicyclo[3.1.0]hex-3-yl}propyl)-2,4(1H,3H)-pyrimidinedione hydrochloride] |
| no activity | Cc1ncccc1-c1cn(CCCCN2C[C@@H]3C[C@]3(c3ccc(C(F)(F)F)cc3)C2)c(=O)[nH]c1=O.Cl.Cl [Example E29, 5-(2-methyl-3-pyridinyl)-1-(4-{(1S,5R)-1-[4-(trifluoromethyl)phenyl]-3-azabicyclo[3.1.0]hex-3-yl}butyl)-2,4(1H,3H)-pyrimidinedione dihydrochloride] |
| no activity | Cl.O=c1[nH]c(=O)n(CCCN2C[C@@H]3C[C@]3(c3ccc(C(F)(F)F)cc3)C2)cc1-c1cccnn1 [Example E26, 5-(3-pyridazinyl)-1-(3-{(1S,5R)-1-[4-(trifluoromethyl)phenyl]-3-azabicyclo[3.1.0]hex-3-yl}propyl)-2,4(1H,3H)-pyrimidinedione hydrochloride] |
| no activity | Cc1cnc(F)c(-c2cn(CCCN3C[C@@H]4C[C@]4(c4ccc(C(F)(F)F)cc4)C3)c(=O)[nH]c2=O)c1.Cl.Cl [Example E61, 5-(2-fluoro-5-methyl-3-pyridinyl)-1-(3-{(1S,5R)-1-[4-(trifluoromethyl)phenyl]-3-azabicyclo[3.1.0]hex-3-yl}propyl)-2,4(1H,3H)-pyrimidinedione dihydrochloride] |
| no activity | Cl.Cl.N#Cc1cccc(-c2cn(CCCN3C[C@@H]4C[C@]4(c4ccc(C(F)(F)F)cc4)C3)c(=O)[nH]c2=O)n1 [Example E47, 6-[2,4-dioxo-1-(3-{(1S,5R)-1-[4-(trifluoromethyl)phenyl]-3-azabicyclo[3.1.0]hex-3-yl}propyl)-1,2,3,4-tetrahydro-5-pyrimidinyl]-2-pyridinecarbonitrile dihydrochloride] |

Further lines, the molecule ahead of its results:

| Structure (SMILES) | activity in the D2 GTPS-SPA assay |
| --- | --- |
| Cl.Cl.O=c1[nH]c(=O)n(CCCN2C[C@@H]3C[C@]3(c3ccc(C(F)(F)F)cc3)C2)cc1-c1cc(F)cnc1Cl [Example E45, 5-(2-chloro-5-fluoro-3-pyridinyl)-1-(3-{(1S,5R)-1-[4-(trifluoromethyl)phenyl]-3-azabicyclo[3.1.0]hex-3-yl}propyl)-2,4(1H,3H)-pyrimidinedione dihydrochloride] | no activity |
| Cl.N#Cc1cn(CCCCN2C[C@@H]3C[C@]3(c3ccc(C(F)(F)F)cc3)C2)c(=O)[nH]c1=O [Example E18, 2,4-dioxo-1-(4-{(1S,5R)-1-[4-(trifluoromethyl)phenyl]-3-azabicyclo[3.1.0]hex-3-yl}butyl)-1,2,3,4-tetrahydro-5-pyrimidinecarbonitrile hydrochloride] | no activity |
| Cl.O=c1[nH]c(=S)ccn1CCCCN1C[C@@H]2C[C@]2(c2ccc(C(F)(F)F)cc2)C1 [Example E33, 4-thioxo-1-(4-{(1S,5R)-1-[4-(trifluoromethyl)phenyl]-3-azabicyclo[3.1.0]hex-3-yl}butyl)-3,4-dihydro-2(1H)-pyrimidinone hydrochloride] | no activity |
| Cl.Cl.O=c1[nH]c(=O)n(CCCN2C[C@@H]3C[C@]3(c3ccc(C(F)(F)F)cc3F)C2)cc1-c1cccnc1F [Example E48, 5-(2-fluoro-3-pyridinyl)-1-(3-{(1S,5R)-1-[2-fluoro-4-(trifluoromethyl)phenyl]-3-azabicyclo[3.1.0]hex-3-yl}propyl)-2,4(1H,3H)-pyrimidinedione dihydrochloride] | no activity |
| Cl.O=c1[nH]c(=O)n(CCCN2C[C@@H]3C[C@]3(c3ccc(C(F)(F)F)cc3F)C2)cc1-c1cccs1 [Example E12, 1-(3-{(1S,5R)-1-[2-fluoro-4-(trifluoromethyl)phenyl]-3-azabicyclo[3.1.0]hex-3-yl}propyl)-5-(2-thienyl)-2,4(1H,3H)-pyrimidinedione hydrochloride] | no activity |
| Cl.Cl.O=c1[nH]c(=O)n(CCCN2C[C@@H]3C[C@]3(c3ccc(C(F)(F)F)cc3)C2)cc1-c1ccncc1 [Example E24, 5-(4-pyridinyl)-1-(3-{(1S,5R)-1-[4-(trifluoromethyl)phenyl]-3-azabicyclo[3.1.0]hex-3-yl}propyl)-2,4(1H,3H)-pyrimidinedione dihydrocholoride] | no activity |
| O=c1[nH]c(=O)n(CCCN2CC3CC3(c3ccc(Cl)cc3)C2)cc1-c1cccnc1F [Example E50, 1-{3-[(1S,5R/1R,5S)-1-(4-chlorophenyl)-3-azabicyclo[3.1.0]hex-3-yl]propyl}-5-(2-fluoro-3-pyridinyl)-2,4(1H,3H)-pyrimidinedione] | no activity |
| Cl.O=c1[nH]c(=O)n(CCCN2C[C@@H]3C[C@]3(c3ccc(C(F)(F)F)cc3)C2)cc1C(F)(F)F [Example E13, 5-(trifluoromethyl)-1-(3-{(1S,5R)-1-[4-(trifluoromethyl)phenyl]-3-azabicyclo[3.1.0]hex-3-yl}propyl)-2,4(1H,3H)-pyrimidinedione hydrochloride] | no activity |
